{"source": "patent US20150044305A1", "about": "“[…] NITRIC OXIDE FOR TREATING RESPIRATORY DISEASES” (Advanced Inhalation Therapies (AIT) Ltd., priority 2012, published 2015)", "key": {"[1]": {"assay": "Phase I open label safety study in healthy adults: adverse events and vital signs", "type": "in vivo, human", "excerpt": "10 healthy adult volunteer subjects (5 males, 5 females), aged 20 to 62 years, were enrolled in the study after screening their medical history, a physical examination, pulmonary function tests and blood values. Exclusion criteria included individuals less than 19 years of age, pregnant females and unwilling to practice birth control during the study, diagnosed with pulmonary disease, epistaxis, hemoptysis, methemoglobinemia, organ transplant recipient or receiving antibiotic therapy.\n(§1) After obtaining informed consent, treatment was initiated within 5 days of enrollment. Subjects were housed in a hospital ward and received 160 ppm gNO for 30 minutes every four hours (Q4 h), five times a day, for five consecutive days by inhalation. Subjects returned for follow-up evaluations 3, 7 and 21 days after the final gNO administration. Subject safety was determined by monitoring vital signs, methemoglobin levels, lung function, blood chemistry, hematology, prothrombin time, inflammatory cytokine/chemokines levels and endothelial activation.\nSubjects were administered gNO through a modified disposable mouthpiece to maximize mixing. Inspiration was spontaneously initiated by the subject from a conventional intermittent positive pressure breathing respirator (Mark-7, Carefusion, USA) in fixed flow mode delivering 48 liters per minute (LPM). Flows of gas were verified with a calibrated mass flow meter (TSI, USA). Gaseous nitric oxide (gNO, obtained at INOmax, Ikaria, USA) at a concentration of 800 ppm delivered at a flow of 12 LPM was titrated into a distal delivery port on the mouth piece connected to the respirator during inspiratory phase only (pressure switch). The Mark 7 respirator was supplied by an air/oxygen blender (Bird Sentry, Carefusion, USA) set to deliver 26% oxygen.\nCardiovascular status was determined by monitoring heart rate, blood pressure, respiratory rate and temperature. Values were recorded prior to the start of each gNO administration, following a 5 minute rest. During treatments, vital signs (except temperature) were also performed 15 minutes after the start of the treatment and at the end of gNO administration and recorded. After the first treatment each day, vital signs were recorded at every 30 minutes until the start of the second gNO administration of the day."}, "MRSA": {"tested_on": "MRSA", "conditions": "200 ppm gNO, saline suspension; cited from earlier work"}, "P. aeruginosa (ATCC)": {"tested_on": "P. aeruginosa (ATCC)", "conditions": "200 ppm gNO, saline suspension; cited from earlier work"}, "S. aureus": {"tested_on": "S. aureus", "conditions": "cited from earlier work"}, "[2]": {"tested_on": "influenza A/victoria/H3N2", "conditions": "160 ppm exogenous gNO, virions or incubated cells, MDCK cell model; cited from earlier work"}, "[3]": {"tested_on": "all microorganisms tested", "conditions": "200 ppm gNO, cited from earlier work"}, "Enterobacter sp.": {"tested_on": "Enterobacter sp.", "conditions": "200 ppm gNO, saline suspension; cited from earlier work"}, "Klebsiella sp.#1": {"tested_on": "Klebsiella sp.#1", "conditions": "200 ppm gNO, saline suspension; cited from earlier work"}, "[4]": {"conditions": "intermittent gNO inhalation; cited from earlier work"}, "methemoglobin": {"tested_on": "methemoglobin", "conditions": "healthy humans, cited from earlier work"}, "[5]": {"tested_on": "five planktonic species of methicillin resistant S. aureous (MRSA)", "conditions": "exposure to 1,600 ppm hours of gNO; cited from earlier work"}, "[6]": {"conditions": "topical 200 ppm gNO, cited from earlier work"}, "E. Coli": {"tested_on": "E. Coli", "conditions": "200 ppm gNO, saline suspension; cited from earlier work"}, "[7]": {"conditions": "gNO concentrations below 200 ppm, 6 hours/day for 28 days, rats; cited from earlier work"}, "S. aureus (Clinical)": {"tested_on": "S. aureus (Clinical)", "conditions": "200 ppm gNO, saline suspension; cited from earlier work"}, "[8]": {"assay": "Phase I safety study: hematology, clinical chemistry and coagulation", "type": "in vivo, human", "conditions": "end of study; baseline 0.15; p=0.104", "protocol": "as §1\nHematological assessment included a complete blood count and differentials (hemoglobin, hematocrit, red blood cell count, white blood cell count, white blood cell differential, and platelet count) were obtained in order to monitor blood chemistry, hematology and inflammation measurements. […] The effect of gNO on coagulation was determined by the prothrombin time (PT) and its derived measures of prothrombin ratio (PR) and international normalized ratio (INR). […] Plasma cytokine levels were assessed using the human inflammation cytokine bead array kit (BD Bioscience, Canada). Plasma levels of angiopoietin Ang-1 and Ang-2 were determined by ELISA (R&D Systems, USA)."}, "Klebsiella sp.#2": {"tested_on": "Klebsiella sp.#2", "conditions": "200 ppm gNO, saline suspension; cited from earlier work"}, "Acinetobacter sp.": {"tested_on": "Acinetobacter sp.", "conditions": "200 ppm gNO, saline suspension; cited from earlier work"}, "[9]": {"conditions": "cited from earlier work"}, "Mycobacterium": {"tested_on": "Mycobacterium", "conditions": "200 ppm gNO, saline suspension; cited from earlier work"}, "[10]": {"conditions": "levels of gNO greater than 120 ppm"}, "[11]": {"conditions": "saline suspension, average over the bacteria of Table 1"}}, "note": "Where two headings read alike, the source gives them in different places.", "data": [{"molecule": "[N]=O", "note": "[gNO, nitric oxide]", "values": [{"measurement": "minor adverse events reported", "setting": "[1]; 160 ppm gNO 30 minutes, five times a day, five days, 10 healthy adults", "result": "Three minor adverse events were reported"}, {"measurement": "tolerability and adverse events", "setting": "[1]; 160 ppm gNO 30 minutes, five times a day, five days, 10 healthy adults, 250 administrations", "result": "well tolerated and no significant adverse events were observed"}, {"measurement": "vital signs", "setting": "[1]; during and after 160 ppm gNO administration", "result": "remained within normal limits"}, {"measurement": "blood pressure", "setting": "[1]; during or after 160 ppm gNO administration", "result": "no drop in blood pressure"}, {"measurement": "LD100", "setting": "MRSA", "result": 5, "unit": "h"}, {"measurement": "Latent Period", "setting": "MRSA", "result": 3, "unit": "h"}, {"measurement": "−2.5 Log10 (hours)", "setting": "MRSA", "result": 4.2, "unit": "hours"}, {"measurement": "LD100", "setting": "P. aeruginosa (ATCC)", "result": 3, "unit": "h"}, {"measurement": "Latent Period", "setting": "P. aeruginosa (ATCC)", "result": 1, "unit": "h"}, {"measurement": "−2.5 Log10 (hours)", "setting": "P. aeruginosa (ATCC)", "result": 2.1, "unit": "hours"}, {"measurement": "reduction of colony formation", "setting": "S. aureus; [10]", "result": "greater than 90%"}, {"measurement": "time required to achieve greater than 90% reduction of colony formation", "setting": "S. aureus; [10]", "result": "8 to 12", "unit": "h"}, {"measurement": "survival (downward bactericidal trend)", "setting": "S. aureus; solid media, increasing gNO concentration up to 160 ppm, vs medical air", "result": "5-10%"}, {"measurement": "viral replication and infectivity", "setting": "[2]", "result": "reduced not only viral replication but also their infectivity"}, {"measurement": "reduction in CFU/mL", "setting": "[3]; every bacteria challenged", "result": "≥ 3", "unit": "log10 CFU/mL"}, {"measurement": "LD100 (hours), Average", "setting": "[3]; [11]", "result": 4.77, "unit": "h"}, {"measurement": "Latent Period (hours), Average", "setting": "[3]; [11]", "result": 2.77, "unit": "h"}, {"measurement": "−2.5 Log10 (hours), Average", "setting": "[3]; [11]", "result": 3.82, "unit": "hours"}, {"measurement": "LD100", "setting": "Enterobacter sp.", "result": 6, "unit": "h"}, {"measurement": "Latent Period", "setting": "Enterobacter sp.", "result": 4, "unit": "h"}, {"measurement": "−2.5 Log10 (hours)", "setting": "Enterobacter sp.", "result": 5.3, "unit": "hours"}, {"measurement": "LD100", "setting": "Klebsiella sp.#1", "result": 6, "unit": "h"}, {"measurement": "Latent Period", "setting": "Klebsiella sp.#1", "result": 3, "unit": "h"}, {"measurement": "−2.5 Log10 (hours)", "setting": "Klebsiella sp.#1", "result": 3.5, "unit": "hours"}, {"measurement": "clinical symptoms of bovine respiratory disease", "setting": "[4]", "result": "shown to decrease the clinical symptoms"}, {"measurement": "MetHb level", "setting": "methemoglobin; inhalation of gNO at 128 ppm for 3 hours", "result": "> 5", "unit": "%"}, {"measurement": "MetHb level", "setting": "methemoglobin; inhalation of gNO at 512 ppm for 55 minutes", "result": "> 5", "unit": "%"}, {"measurement": "population of planktonic MRSA strains", "setting": "[5]", "result": "A reduction in the population of all five MRSA planktonic strains was observed"}, {"measurement": "wound size reduction", "setting": "[6]; at one week", "result": 42, "unit": "%"}, {"measurement": "biofilm presence", "setting": "[6]; within the first three days of treatment", "result": "no longer visibly present"}, {"measurement": "LD100", "setting": "E. Coli", "result": 5, "unit": "h"}, {"measurement": "Latent Period", "setting": "E. Coli", "result": 3, "unit": "h"}, {"measurement": "−2.5 Log10 (hours)", "setting": "E. Coli", "result": 4.2, "unit": "hours"}, {"measurement": "mortality", "setting": "[7]", "result": "No deaths occurred"}, {"measurement": "LD100", "setting": "S. aureus (Clinical)", "result": 4, "unit": "h"}, {"measurement": "Latent Period", "setting": "S. aureus (Clinical)", "result": 3, "unit": "h"}, {"measurement": "−2.5 Log10 (hours)", "setting": "S. aureus (Clinical)", "result": 3.7, "unit": "hours"}, {"measurement": "eosinophil cell numbers", "setting": "[8]", "result": 0.19, "unit": "giga/L"}, {"measurement": "LD100", "setting": "Klebsiella sp.#2", "result": 5, "unit": "h"}, {"measurement": "Latent Period", "setting": "Klebsiella sp.#2", "result": 2, "unit": "h"}, {"measurement": "−2.5 Log10 (hours)", "setting": "Klebsiella sp.#2", "result": 4.1, "unit": "hours"}, {"measurement": "LD100", "setting": "Acinetobacter sp.", "result": 6, "unit": "h"}, {"measurement": "Latent Period", "setting": "Acinetobacter sp.", "result": 4, "unit": "h"}, {"measurement": "−2.5 Log10 (hours)", "setting": "Acinetobacter sp.", "result": 5, "unit": "hours"}, {"measurement": "mortality", "setting": "[9]; 300 ppm gNO, groups of 10 rats, first 1-2 days", "result": "Six of the animals treated with 300 ppm gNO died"}, {"measurement": "mortality", "setting": "[9]; 400 ppm gNO, 6 continuous hours per day, rats", "result": "all of the animals died on the first day"}, {"measurement": "mortality", "setting": "[9]; 500 ppm gNO, 6 continuous hours per day, rats", "result": "all of the animals died on the first day"}, {"measurement": "MetHb level", "setting": "[9]; 500 ppm gNO, rats", "result": 67, "unit": "percents"}, {"measurement": "LD100", "setting": "Mycobacterium", "result": 10, "unit": "h"}, {"measurement": "Latent Period", "setting": "Mycobacterium", "result": 7, "unit": "h"}, {"measurement": "−2.5 Log10 (hours)", "setting": "Mycobacterium", "result": 9.2, "unit": "hours"}]}]}
